PMC10180065, “Mechanistic Studies of Arene–Ruthenium(II) Complexes with Carbothioamidopyrazoles as Alternative Cancer Drugs” (Molecules, 2023)

What was measured:
[1] = system: human microvascular endothelial cell line HMEC1; experiment: MTT cytotoxicity, normal endothelial cells HMEC1; assay type: cell-based; conditions: for IC50: HMEC1 normal endothelial cells, 48 h incubation, read-out: Cytotoxic effect, IC50; for IC50 for HMEC-1 higher than for cancer cells (selectivity): HMEC-1 vs cancer cells
Experimental: (§1) Cytotoxicity was evaluated against fifteen adherent human cancer cell lines using the MTT test: colorectal adenocarcinoma cells Caco2 (ATCC® HTB-37™), colorectal adenocarcinoma cells HT29 (ATCC® HTB-38™), colon colorectal carcinoma HCT116 (ATCC® CCL-247™), colon adenocarcinoma COLO205 (ATCC® CCL-222™), colorectal adenocarcinoma SW620 (ATCC® CCL-227™), colorectal adenocarcinoma grade IV LoVo (ATCC® CCL-229™), hepatocellular carcinoma Hep 3b (ATCC® HB-8064™), endometrium adenocarcinoma HEC1A (ATCC® HTB-112™), Ishikawa (99040201; Sigma–Aldrich Sigma, St. Louis, MO, USA), cervical adenocarcinoma cells HeLa (ATCC® CCL-2™), lung epithelial carcinoma A549 (ATCC® CRM-CCL-185™), breast epithelial adenocarcinoma cell positive for estrogen and progesterone receptors MCF7 (ATCC® HTB-22™) and negative for expression of estrogen receptor HCC38 (ATCC® CRL-2314™), acute promyelocytic leukemia HL-60 (ATCC® CCL-240™), skin melanoma WM115 (ATCC® CRL-1676™), and 1 suspension cancer cell line: acute lymphoblastic leukemia NALM6 (purchased from the German Collection of Microorganisms and Cell Cultures). HT29, NALM6, HCC-38 and HL-60 cells were cultured in RPMI 1640 medium (Thermo Fisher Scientific, Waltham, MA, USA) supplemented with 10% fetal bovine serum and antibiotic (gentamicin 25 μg ml^−1) (Gibco, Grand Island, New York, NY, USA). For the remaining tumor cell lines, Dulbecco’s minimal essential medium (DMEM, Lonza, Visp, Switzerland) supplemented with 10% fetal bovine serum and antibiotic instead of RPMI 1640 was used. In addition, Human Microvascular Endothelial Cells (HMEC1), which were obtained from the American Type Culture Collection (Manassas, VA, USA), were used as a model of normal cells. HMEC-1 were cultured in MCDB131 medium (Corning Life Sciences, Corning, NY, USA), supplemented with 10% fetal bovine serum, 10 ng/mL Epidermal Growth Factor (Millipore, Burlington, MA, USA) and 10 mM glutamine (Corning Life Sciences). All cells were grown at 37 °C in humidified atmosphere of 5% CO2 in air. The exponential growth of cells was maintained by regular passaging at 90% confluence three times a week using 0.025% trypsin/EDTA (Gibco, Grand Island, New York, NY, USA).
(§2) The cytotoxicity was tested by a standard MTT [3-(4,5-dimethylthiazol-2-yl)-2,5-diphenyltetrazolium bromide] (Sigma, St. Louis, MO, USA) microplate cell viability assay. The anticancer activity of the investigated compounds was evaluated in vitro on the basis of their ability to inhibit the proliferation of various cancer cells. Exponentially growing cells were seeded a day before the experiment into a 96-well microplate (Nunc, Roskilde, Denmark) at a density up to 6–8 × 10^3 cells/mL (depending on the cell line) and exposed to the test compounds at a wide range of concentrations for 48 h. Subsequently, various concentrations of the studied compounds (10^−7–10^−5 M) freshly prepared in DMSO (final concentration of <0.1% DMSO) and diluted with complete culture medium were added. After 48 h incubation, the cells were immediately subjected to a cell viability assay. At this time point, the number of viable cells in each well was estimated by the MTT test. Briefly, 50 µL (5 mg/mL final concentration) of MTT was added to each microplate well. This procedure was then followed by a three- to four-hour incubation at 37 °C. After incubation, MTT solution was replaced with 100 µL DMSO/well, which solubilized the formazan crystals formed by the dehydrogenases of metabolically active cells. Purple formazan absorbance was measured spectrophotometrically at 570 nm.

A549 = experiment: MTT cytotoxicity, A549; assay type: cell-based, human; conditions: 48 h incubation, read-out: Cytotoxic effect, IC50
Experimental: as §1, §2

HCC38 = experiment: MTT cytotoxicity, HCC38; assay type: cell-based, human; conditions: 48 h incubation, read-out: Cytotoxic effect, IC50
Experimental: as §1, §2

WM115 = experiment: MTT cytotoxicity, WM115; assay type: cell-based, human; conditions: 48 h incubation, read-out: Cytotoxic effect, IC50
Experimental: as §1, §2

Caco2 = experiment: MTT cytotoxicity, Caco2; assay type: cell-based, human; conditions: 48 h incubation, read-out: Cytotoxic effect, IC50
Experimental: as §1, §2

Hep 3b = experiment: MTT cytotoxicity, Hep 3b; assay type: cell-based, human; conditions: 48 h incubation, read-out: Cytotoxic effect, IC50
Experimental: as §1, §2

PARP1 = experiment: Cleaved PARP level (ELISA), COLO205 cells; assay type: cell-based, human; conditions: COLO205, 24 h at IC50 concentration
Experimental: Cells (1 × 10^6) were seeded in 35 mm dishes and cultured for 24 h in the appropriate medium until they reached log phase growth. […] After incubation, the medium was removed, the cells were washed with PBS solution and trypsinized. The harvested cell pellet was lysed in RIPA buffer (50 mM Tris-HCL, pH 8.0, with 150 mM sodium chloride, 1.0% Igepal CA-630 (NP-40), 0.5% sodium deoxychlorate, and 0.1% sodium dodecyl sulfate) with protease inhibitor (phenylmethylsulfonyl fluoride) (Sigma-Aldrich Sigma, St. Louis, MO, USA). The level of cleaved PARP was estimated using the PARP Cleaved [214/215] ELISA kit (Invitrogen, Waltham, MA, USA) according to the protocol described in the manufacturer’s instructions.

LoVo = experiment: MTT cytotoxicity, LoVo; assay type: cell-based, human; conditions: 48 h incubation, read-out: Cytotoxic effect, IC50
Experimental: as §1, §2

Colo205 [2] = experiment: MTT cytotoxicity, Colo205; assay type: cell-based, human; conditions: 48 h incubation, read-out: Cytotoxic effect, IC50
Experimental: as §1, §2

human cancer cell lines = experiment: MTT cytotoxicity, summary statements over the cancer cell line panel; assay type: cell-based; conditions: read-out: IC50 for seven (2c) and six (3c) cancer cell lines
Experimental: (§3) Cytotoxicity was evaluated against fifteen adherent human cancer cell lines using the MTT test: colorectal adenocarcinoma cells Caco2 (ATCC® HTB-37™), colorectal adenocarcinoma cells HT29 (ATCC® HTB-38™), colon colorectal carcinoma HCT116 (ATCC® CCL-247™), colon adenocarcinoma COLO205 (ATCC® CCL-222™), colorectal adenocarcinoma SW620 (ATCC® CCL-227™), colorectal adenocarcinoma grade IV LoVo (ATCC® CCL-229™), hepatocellular carcinoma Hep 3b (ATCC® HB-8064™), endometrium adenocarcinoma HEC1A (ATCC® HTB-112™), Ishikawa (99040201; Sigma–Aldrich Sigma, St. Louis, MO, USA), cervical adenocarcinoma cells HeLa (ATCC® CCL-2™), lung epithelial carcinoma A549 (ATCC® CRM-CCL-185™), breast epithelial adenocarcinoma cell positive for estrogen and progesterone receptors MCF7 (ATCC® HTB-22™) and negative for expression of estrogen receptor HCC38 (ATCC® CRL-2314™), acute promyelocytic leukemia HL-60 (ATCC® CCL-240™), skin melanoma WM115 (ATCC® CRL-1676™), and 1 suspension cancer cell line: acute lymphoblastic leukemia NALM6 (purchased from the German Collection of Microorganisms and Cell Cultures). […]
(§4) The cytotoxicity was tested by a standard MTT [3-(4,5-dimethylthiazol-2-yl)-2,5-diphenyltetrazolium bromide] […] The anticancer activity of the investigated compounds was evaluated in vitro on the basis of their ability to inhibit the proliferation of various cancer cells. […]

NALM6 = experiment: MTT cytotoxicity, NALM6; assay type: cell-based, human; conditions: 48 h incubation, read-out: Cytotoxic effect, IC50
Experimental: as §1, §2

HL60 = experiment: MTT cytotoxicity, HL60; assay type: cell-based, human; conditions: 48 h incubation, read-out: Cytotoxic effect, IC50
Experimental: as §1, §2

HEC1A = experiment: MTT cytotoxicity, HEC1A; assay type: cell-based, human; conditions: 48 h incubation, read-out: Cytotoxic effect, IC50
Experimental: as §1, §2

Colo205 [3] = experiment: RNS generation, DAF-FM probe, COLO205; assay type: cell-based, human; conditions: COLO205, 24 h at IC50 concentration
Ishikawa = experiment: MTT cytotoxicity, Ishikawa; assay type: cell-based, human; conditions: 48 h incubation, read-out: Cytotoxic effect, IC50
Experimental: as §1, §2

MCF7 = experiment: MTT cytotoxicity, MCF7; assay type: cell-based, human; conditions: 48 h incubation, read-out: Cytotoxic effect, IC50
Experimental: as §1, §2

SW620 = experiment: MTT cytotoxicity, SW620; assay type: cell-based, human; conditions: 48 h incubation, read-out: Cytotoxic effect, IC50
Experimental: as §1, §2

HT29 = experiment: MTT cytotoxicity, HT29; assay type: cell-based, human; conditions: 48 h incubation, read-out: Cytotoxic effect, IC50
Experimental: as §1, §2

Lipophilicity by RP-TLC = assay type: physicochemical; design: key: RM = log(1/Rf − 1), Rf = a/b; conditions: eluent AcCN: H2O at 30–70% v/v, 22 °C
Experimental: All the experimental solutions of standard substances (0.1 mg/mL) were prepared by dissolving ligands (1a–1d) or ruthenium complexes (2a/3a–2d/3d) in ethanol. Commercially-available octadecyl-modified silica aluminum sheets (20 × 20 cm) were cut into 5 × 10 cm plates. The plates were manually spotted with 1.0 μL of freshly prepared solutions using automatic pipets, 5 mm from each edge. The chromatograms for all compounds (1a/2a/3a–1d/2d/3d) were developed using a horizontal developing chamber and the solvent migration distance was about 4.5 cm. The plates were visually inspected under UV light at 254 nm. Each zone was clearly marked and its distance was manually measured. The RP-TLC analyses of lipophilicity were performed at ambient temperature (22 °C). In this experiment, all measurements were performed in triplicate and the obtained results were used in further calculations. The acetonitrile and water mixtures for ligands 1a–1d and arene–ruthenium(II) complexes 2a/3a–2d/3d were used as mobile phases, with […] content increasing in the range of 30–70% v/v, at 5% intervals. Values of the chromatographic retention coefficient Rf (as shown Formula (1)) and RM (as shown Formula (2)), based on received chromatograms, were calculated and converted as follows:(1) Rf=a/b (2) RM=log1/Rf−1

Hela = experiment: MTT cytotoxicity, Hela; assay type: cell-based, human; conditions: 48 h incubation, read-out: Cytotoxic effect, IC50
Experimental: as §1, §2

HCT116 = experiment: MTT cytotoxicity, HCT116; assay type: cell-based, human; conditions: 48 h incubation, read-out: Cytotoxic effect, IC50
Experimental: as §3, §4

Cc1ccc(C(C)C)cc1.F[P-](F)(F)(F)(F)F.NC(=S)n1nc(-c2ccccc2)cc1O.[Cl-].[Ru+2] [3c]
IC50 [1]: 164 ± 3.1 µM | IC50 for HMEC-1 higher than for cancer cells (selectivity) [1]: 3–5 times | IC50 (A549): 191 ± 4.3 µM | IC50 (HCC38): 131 ± 2.2 µM | IC50 (WM115): 18.7 ± 1.7 µM | IC50 (Caco2): 172 ± 8.2 µM | IC50 (Hep 3b): 52.1 ± 3.4 µM | increase in level of PARP1 degradation vs. control (PARP1): approximately 85% | IC50 (LoVo): 32.4 ± 1.8 µM | IC50 (Colo205 [2]): 26.7 ± 2.1 µM | IC50 (human cancer cell lines): < 50 µM | IC50 (NALM6): 19.8 ± 1.8 µM | IC50 (HL60): 70.4 ± 6 µM | IC50 (HEC1A): 39.9 ± 4.1 µM | increase in nitrogen peroxide (RNS, DAF-FM probe) vs. control (Colo205 [3]): ~25% | IC50 (Ishikawa): 124.3 ± 0.9 µM | IC50 (MCF7): 30.4 ± 2.1 µM | IC50 (SW620): 90.1 ± 1.7 µM | IC50 (HT29): 128 ± 4.2 µM | Lipophilicity, RM (Lipophilicity by RP-TLC): 2.61 | IC50 (Hela): 78.8 ± 1.1 µM

Cl.[Cl-].[Cl-].[Cl-].[Ru+3].c1c[nH]cn1.c1c[nH]cn1 [NAMI-A, reference compound]
IC50 (WM115): > 200 µM | IC50 (Hep 3b): > 200 µM | IC50 (Colo205 [2]): > 200 µM | IC50 (NALM6): > 200 µM | IC50 (HEC1A): > 200 µM | IC50 (HCT116): > 200 µM | IC50 (Ishikawa): > 200 µM | IC50 (MCF7): 14.1 ± 1.5 µM | IC50 (SW620): > 200 µM | IC50 (HT29): > 200 µM

CCc1cc(CC)n(C(N)=S)n1.Cc1ccc(C(C)C)cc1.[Cl-].[Cl][Ru+] [2b]
IC50 [1]: 125 ± 2.1 µM | IC50 for HMEC-1 higher than for cancer cells (selectivity) [1]: 3–5 times | IC50 (A549): > 200 µM | IC50 (HCC38): 63.7 ± 4.4 µM | IC50 (WM115): 54.9 ± 5.9 µM | IC50 (Caco2): > 200 µM | IC50 (Hep 3b): > 200 µM | IC50 (LoVo): 59.7 ± 3.2 µM | IC50 (Colo205 [2]): 115 ± 4.1 µM | IC50 (NALM6): 40 ± 5.6 µM | IC50 (HL60): 80.8 ± 3.9 µM | IC50 (HEC1A): 36.4 ± 1.7 µM | IC50 (Ishikawa): 51.4 ± 1.9 µM | IC50 (MCF7): 82.7 ± 3 µM | IC50 (SW620): 107 ± 3.4 µM | IC50 (HT29): 107 ± 5.9 µM | Lipophilicity, RM (Lipophilicity by RP-TLC): 2.59 | IC50 (Hela): 164 ± 8.5 µM
